Measured values taken from paper PMC5605198, “MELK is not necessary for the proliferation of basal-like breast cancer cells” (eLife, 2017).
Where two headings read alike, the source gives them in different places.

What was measured:
HCC70 = assay: Cell proliferation assay (CellTiter-Glo); settings: Homo sapiens
PKC zeta = PKC zeta (Homo sapiens, UniProt Q05513); assay: ICKP radiometric kinase assay; assay type: biochemical; settings: read-out: % AR (% kinase activity remaining)
ABL = ABL (Homo sapiens, UniProt P00519); assay: ICKP radiometric kinase assay; assay type: biochemical; settings: read-out: % AR (% kinase activity remaining)
MARK4 = MARK4 (Homo sapiens, UniProt Q96L34); assay: ICKP radiometric kinase assay; assay type: biochemical; settings: read-out: % AR (% kinase activity remaining)
141 kinases = assay: ICKP panel radiometric kinase profiling (summary); assay type: biochemical; settings: radioactive filter-binding assay; kinases inhibited more strongly than MELK in the ICKP panel; read-out: IC50 values of potential off-target kinases
ZAP70 = ZAP70 (Homo sapiens, UniProt P43403); assay: ICKP radiometric kinase assay; assay type: biochemical; settings: read-out: % AR (% kinase activity remaining)
CLK2 = CLK2 (Homo sapiens, UniProt P49760); assay: ICKP radiometric kinase assay; assay type: biochemical; settings: read-out: % AR (% kinase activity remaining)
PIK3CA = PIK3CA (Homo sapiens, UniProt P42336); assay: Adapta kinase assay; settings: Adapta assay at [ATP]=apparent Km; read-out: Biochemical IC50 PIK3CA
PIM1 = PIM1 (Homo sapiens, UniProt P11309); assay: ICKP radiometric kinase assay; assay type: biochemical; settings: for remaining activity at 1 µM: read-out: % AR (% kinase activity remaining)
CHK2 = CHK2 (Homo sapiens, UniProt O96017); assay: ICKP radiometric kinase assay; assay type: biochemical; settings: read-out: % AR (% kinase activity remaining)
PKC gamma = PKC gamma (Homo sapiens, UniProt P05129); assay: ICKP radiometric kinase assay; assay type: biochemical; settings: read-out: % AR (% kinase activity remaining)
MAPKAP-K3 = MAPKAP-K3 (Homo sapiens, UniProt Q16644); assay: ICKP radiometric kinase assay; assay type: biochemical; settings: read-out: % AR (% kinase activity remaining)
OSR1 = OSR1 (Homo sapiens, UniProt O95747); assay: ICKP radiometric kinase assay; assay type: biochemical; settings: read-out: % AR (% kinase activity remaining)
MSK1 = MSK1 (Homo sapiens, UniProt O75582); assay: ICKP radiometric kinase assay; assay type: biochemical; settings: read-out: % AR (% kinase activity remaining)
RSK1 = RSK1 (Homo sapiens, UniProt Q15418); assay: ICKP radiometric kinase assay; assay type: biochemical; settings: read-out: % AR (% kinase activity remaining)
MAP4K5 = MAP4K5 (Homo sapiens, UniProt Q9Y4K4); assay: ICKP radiometric kinase assay; assay type: biochemical; settings: read-out: % AR (% kinase activity remaining)
PAK6 = PAK6 (Homo sapiens, UniProt Q9NQU5); assay: ICKP radiometric kinase assay; assay type: biochemical; settings: read-out: % AR (% kinase activity remaining)
SRPK1 = SRPK1 (Homo sapiens, UniProt Q96SB4); assay: ICKP radiometric kinase assay; assay type: biochemical; settings: read-out: % AR (% kinase activity remaining)
mTOR = mTOR (Homo sapiens, UniProt P42345); assay: Z’-LYTE enzymatic assay; settings: Z’-LYTE assay at [ATP]=apparent Km; read-out: Biochemical IC50 mTOR
EPH-A2 = EPH-A2 (Homo sapiens, UniProt P29317); assay: ICKP radiometric kinase assay; assay type: biochemical; settings: read-out: % AR (% kinase activity remaining)
ZR-75-1 = assay: Cell proliferation assay (CellTiter-Glo); settings: Homo sapiens, ZR-75-1, 72 h, read-out: 3-day antiproliferative IC50
ULK1 = ULK1 (Homo sapiens, UniProt O75385); assay: ICKP radiometric kinase assay; assay type: biochemical; settings: read-out: % AR (% kinase activity remaining)
HER4 = HER4 (Homo sapiens, UniProt Q15303); assay: ICKP radiometric kinase assay; assay type: biochemical; settings: read-out: % AR (% kinase activity remaining)
BRSK1 = BRSK1 (Homo sapiens, UniProt Q8TDC3); assay: ICKP radiometric kinase assay; assay type: biochemical; settings: read-out: % AR (% kinase activity remaining)
MNK1 = MNK1 (Homo sapiens, UniProt Q9BUB5); assay: ICKP radiometric kinase assay; assay type: biochemical; settings: read-out: % AR (% kinase activity remaining)
IR = IR (Homo sapiens, UniProt P06213); assay: ICKP radiometric kinase assay; assay type: biochemical; settings: read-out: % AR (% kinase activity remaining)
PKC alpha = PKC alpha (Homo sapiens, UniProt P17252); assay: ICKP radiometric kinase assay; assay type: biochemical; settings: read-out: % AR (% kinase activity remaining)
MST4 = MST4 (Homo sapiens, UniProt Q9P289); assay: ICKP radiometric kinase assay; assay type: biochemical; settings: read-out: % AR (% kinase activity remaining)
IGF-1R = IGF-1R (Homo sapiens, UniProt P08069); assay: ICKP radiometric kinase assay; assay type: biochemical; settings: read-out: % AR (% kinase activity remaining)
MST2 = MST2 (Homo sapiens, UniProt Q13188); assay: ICKP radiometric kinase assay; assay type: biochemical; settings: read-out: % AR (% kinase activity remaining)
MCF7 = assay: Cell proliferation assay (CellTiter-Glo); settings: Homo sapiens
YES1 = YES1 (Homo sapiens, UniProt P07947); assay: ICKP radiometric kinase assay; assay type: biochemical; settings: read-out: % AR (% kinase activity remaining)
TESK1 = TESK1 (Homo sapiens, UniProt Q15569); assay: ICKP radiometric kinase assay; assay type: biochemical; settings: read-out: % AR (% kinase activity remaining)
Aurora A = Aurora A (Homo sapiens, UniProt O14965); assay: ICKP radiometric kinase assay; assay type: biochemical; settings: read-out: % AR (% kinase activity remaining)
MELK = MELK (Homo sapiens, UniProt Q14680); settings: ref Chung et al., 2012; cited from earlier work
[1] = HCC70, 72 h, read-out: 3-day antiproliferative IC50
[2] = HCC70, 168 h, read-out: 7-day antiproliferative IC50
[3] = MCF7, 72 h, read-out: 3-day antiproliferative IC50
[4] = MCF7, 168 h, read-out: 7-day antiproliferative IC50

Chain of PIM1 (P11309 whole entry, species assumed): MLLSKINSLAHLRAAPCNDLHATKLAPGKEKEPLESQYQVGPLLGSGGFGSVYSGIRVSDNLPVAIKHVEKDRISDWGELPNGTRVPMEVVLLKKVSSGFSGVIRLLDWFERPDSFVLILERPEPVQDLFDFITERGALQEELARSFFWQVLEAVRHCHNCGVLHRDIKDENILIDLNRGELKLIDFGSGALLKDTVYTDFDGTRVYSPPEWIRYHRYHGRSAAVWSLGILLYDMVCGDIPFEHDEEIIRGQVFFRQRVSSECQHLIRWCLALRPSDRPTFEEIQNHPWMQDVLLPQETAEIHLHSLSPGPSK
Chain of MST2 (Q13188 whole entry): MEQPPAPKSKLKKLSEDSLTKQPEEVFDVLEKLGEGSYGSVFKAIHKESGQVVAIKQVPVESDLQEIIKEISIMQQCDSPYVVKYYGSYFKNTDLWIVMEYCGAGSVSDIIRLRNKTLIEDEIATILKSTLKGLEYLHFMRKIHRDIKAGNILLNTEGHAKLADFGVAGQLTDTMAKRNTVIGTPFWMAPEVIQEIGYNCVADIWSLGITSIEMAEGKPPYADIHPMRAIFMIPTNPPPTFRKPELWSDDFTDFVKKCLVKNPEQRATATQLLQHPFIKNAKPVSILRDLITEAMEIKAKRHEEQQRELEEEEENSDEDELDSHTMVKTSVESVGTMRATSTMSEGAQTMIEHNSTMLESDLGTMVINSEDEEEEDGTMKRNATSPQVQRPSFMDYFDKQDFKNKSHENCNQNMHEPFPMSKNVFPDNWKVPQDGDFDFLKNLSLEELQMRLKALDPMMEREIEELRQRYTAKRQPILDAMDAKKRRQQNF
Chain of ULK1 (O75385 whole entry): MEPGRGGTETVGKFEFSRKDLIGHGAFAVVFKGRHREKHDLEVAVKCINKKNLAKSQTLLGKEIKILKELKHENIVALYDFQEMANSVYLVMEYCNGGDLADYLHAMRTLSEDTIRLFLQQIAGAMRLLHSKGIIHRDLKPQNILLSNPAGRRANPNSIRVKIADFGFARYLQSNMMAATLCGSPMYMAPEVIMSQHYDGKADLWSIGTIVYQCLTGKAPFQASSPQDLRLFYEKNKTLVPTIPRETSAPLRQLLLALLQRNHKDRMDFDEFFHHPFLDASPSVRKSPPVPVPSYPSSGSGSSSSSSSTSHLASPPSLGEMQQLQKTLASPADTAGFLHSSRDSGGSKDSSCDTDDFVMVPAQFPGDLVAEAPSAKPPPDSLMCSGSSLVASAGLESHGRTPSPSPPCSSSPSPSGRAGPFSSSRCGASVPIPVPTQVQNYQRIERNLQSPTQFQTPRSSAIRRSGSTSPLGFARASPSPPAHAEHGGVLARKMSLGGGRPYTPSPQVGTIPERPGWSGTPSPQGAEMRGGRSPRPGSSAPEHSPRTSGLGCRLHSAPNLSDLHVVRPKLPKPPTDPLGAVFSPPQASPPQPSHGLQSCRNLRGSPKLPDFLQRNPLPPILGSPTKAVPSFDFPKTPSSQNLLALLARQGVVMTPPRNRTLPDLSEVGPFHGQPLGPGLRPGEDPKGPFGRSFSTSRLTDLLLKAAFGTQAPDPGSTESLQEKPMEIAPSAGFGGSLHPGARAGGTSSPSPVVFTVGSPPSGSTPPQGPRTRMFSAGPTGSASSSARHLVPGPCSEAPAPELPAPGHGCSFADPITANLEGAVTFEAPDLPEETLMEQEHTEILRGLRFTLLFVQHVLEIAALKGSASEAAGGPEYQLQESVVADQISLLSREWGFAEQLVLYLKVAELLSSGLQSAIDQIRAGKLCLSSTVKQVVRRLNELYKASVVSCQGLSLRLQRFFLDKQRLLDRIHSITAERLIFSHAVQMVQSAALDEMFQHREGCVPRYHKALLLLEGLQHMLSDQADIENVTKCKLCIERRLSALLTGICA
Chain of RSK1 (Q15418 whole entry): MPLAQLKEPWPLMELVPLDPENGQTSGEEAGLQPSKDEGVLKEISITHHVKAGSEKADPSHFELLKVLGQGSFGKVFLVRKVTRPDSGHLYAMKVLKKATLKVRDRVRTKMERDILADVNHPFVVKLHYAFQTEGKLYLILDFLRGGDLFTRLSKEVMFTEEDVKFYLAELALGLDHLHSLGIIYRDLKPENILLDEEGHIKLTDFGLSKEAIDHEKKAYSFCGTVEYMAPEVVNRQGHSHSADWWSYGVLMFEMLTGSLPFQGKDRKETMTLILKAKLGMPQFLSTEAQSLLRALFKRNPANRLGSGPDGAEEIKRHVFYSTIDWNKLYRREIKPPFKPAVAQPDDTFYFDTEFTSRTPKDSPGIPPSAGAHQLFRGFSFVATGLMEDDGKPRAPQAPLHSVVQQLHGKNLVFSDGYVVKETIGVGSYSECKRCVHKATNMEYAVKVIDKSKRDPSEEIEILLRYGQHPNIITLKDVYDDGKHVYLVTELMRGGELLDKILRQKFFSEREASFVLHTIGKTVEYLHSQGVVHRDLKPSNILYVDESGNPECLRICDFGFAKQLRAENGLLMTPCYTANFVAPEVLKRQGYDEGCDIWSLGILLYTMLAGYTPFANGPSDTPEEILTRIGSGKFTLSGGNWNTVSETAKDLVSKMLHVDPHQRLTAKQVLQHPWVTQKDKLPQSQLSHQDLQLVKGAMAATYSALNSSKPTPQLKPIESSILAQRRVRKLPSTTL
Chain of PKC zeta (Q05513 whole entry): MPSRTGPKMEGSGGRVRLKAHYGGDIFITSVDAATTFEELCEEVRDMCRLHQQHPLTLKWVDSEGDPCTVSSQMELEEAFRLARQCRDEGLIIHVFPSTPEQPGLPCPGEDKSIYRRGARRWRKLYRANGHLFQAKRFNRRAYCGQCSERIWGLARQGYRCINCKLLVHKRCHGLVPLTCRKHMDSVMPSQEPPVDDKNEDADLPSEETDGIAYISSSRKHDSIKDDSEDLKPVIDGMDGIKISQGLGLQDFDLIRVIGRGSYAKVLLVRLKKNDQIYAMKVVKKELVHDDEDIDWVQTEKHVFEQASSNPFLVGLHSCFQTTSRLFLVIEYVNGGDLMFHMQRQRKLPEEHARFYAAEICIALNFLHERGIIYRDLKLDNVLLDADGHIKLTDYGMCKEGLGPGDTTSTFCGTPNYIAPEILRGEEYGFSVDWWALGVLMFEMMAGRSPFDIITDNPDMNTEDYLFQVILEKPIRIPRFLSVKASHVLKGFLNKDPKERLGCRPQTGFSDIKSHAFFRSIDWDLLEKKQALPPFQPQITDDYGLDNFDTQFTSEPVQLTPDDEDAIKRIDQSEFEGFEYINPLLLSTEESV
Chain of TESK1 (Q15569 whole entry): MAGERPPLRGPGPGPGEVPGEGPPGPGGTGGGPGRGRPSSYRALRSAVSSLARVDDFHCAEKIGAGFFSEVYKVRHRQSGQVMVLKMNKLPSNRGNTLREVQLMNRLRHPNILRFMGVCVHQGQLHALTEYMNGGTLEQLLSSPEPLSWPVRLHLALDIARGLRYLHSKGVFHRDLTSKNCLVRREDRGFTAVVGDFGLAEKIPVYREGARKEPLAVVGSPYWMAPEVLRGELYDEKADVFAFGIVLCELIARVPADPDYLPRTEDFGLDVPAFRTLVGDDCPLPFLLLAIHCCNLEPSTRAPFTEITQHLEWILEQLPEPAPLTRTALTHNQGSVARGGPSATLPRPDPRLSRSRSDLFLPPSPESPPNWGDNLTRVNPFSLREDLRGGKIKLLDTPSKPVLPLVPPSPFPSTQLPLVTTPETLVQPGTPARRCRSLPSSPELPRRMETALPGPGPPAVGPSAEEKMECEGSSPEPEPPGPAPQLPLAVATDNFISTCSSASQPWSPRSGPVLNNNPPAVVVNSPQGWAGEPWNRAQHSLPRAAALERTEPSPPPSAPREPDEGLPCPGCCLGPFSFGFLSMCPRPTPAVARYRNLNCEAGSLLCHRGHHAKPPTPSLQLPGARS
Chain of MST4 (Q9P289 whole entry): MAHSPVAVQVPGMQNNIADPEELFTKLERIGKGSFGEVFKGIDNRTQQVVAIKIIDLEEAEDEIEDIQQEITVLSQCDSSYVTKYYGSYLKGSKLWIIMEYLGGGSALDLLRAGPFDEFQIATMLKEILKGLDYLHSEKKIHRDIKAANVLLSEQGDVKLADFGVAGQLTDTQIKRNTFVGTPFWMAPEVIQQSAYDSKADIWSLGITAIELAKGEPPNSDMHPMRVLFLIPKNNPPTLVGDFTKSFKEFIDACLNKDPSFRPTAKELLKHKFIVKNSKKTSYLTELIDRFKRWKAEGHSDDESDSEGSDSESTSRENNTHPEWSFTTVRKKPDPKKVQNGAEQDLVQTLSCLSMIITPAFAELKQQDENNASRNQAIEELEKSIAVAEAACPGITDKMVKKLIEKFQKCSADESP
Chain of MARK4 (Q96L34 whole entry): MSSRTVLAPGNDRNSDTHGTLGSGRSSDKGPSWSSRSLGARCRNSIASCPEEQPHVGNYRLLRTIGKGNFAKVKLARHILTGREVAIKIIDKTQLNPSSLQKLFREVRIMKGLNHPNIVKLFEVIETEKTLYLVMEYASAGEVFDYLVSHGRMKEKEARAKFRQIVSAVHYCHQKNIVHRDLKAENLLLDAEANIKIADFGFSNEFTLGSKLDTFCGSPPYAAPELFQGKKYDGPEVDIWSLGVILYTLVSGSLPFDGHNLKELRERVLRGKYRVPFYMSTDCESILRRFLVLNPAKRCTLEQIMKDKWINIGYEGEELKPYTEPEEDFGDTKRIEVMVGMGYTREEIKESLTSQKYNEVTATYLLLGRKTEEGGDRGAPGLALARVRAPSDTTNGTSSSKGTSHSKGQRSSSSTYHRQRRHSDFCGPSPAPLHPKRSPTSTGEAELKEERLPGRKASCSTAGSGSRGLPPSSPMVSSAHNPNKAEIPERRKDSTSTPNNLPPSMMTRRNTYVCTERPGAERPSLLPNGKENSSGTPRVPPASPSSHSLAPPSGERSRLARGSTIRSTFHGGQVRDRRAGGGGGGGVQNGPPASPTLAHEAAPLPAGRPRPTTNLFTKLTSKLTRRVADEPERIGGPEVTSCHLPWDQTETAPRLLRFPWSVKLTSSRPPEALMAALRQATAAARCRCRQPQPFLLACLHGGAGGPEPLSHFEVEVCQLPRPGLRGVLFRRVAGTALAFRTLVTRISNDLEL

Q: Which IC50 (HCC70; [1]) does the source give for `CN(C)C[C@H]1CC[C@H](N2C(=O)NCc3cnc4ccc(-c5cc(Cl)c(O)c(Cl)c5)cc4c32)CC1` [HTH-01-091, 9-(3,5-dichloro-4-hydroxyphenyl)-1-(trans-4-((dimethylamino)methyl)cyclohexyl)-3,4-dihydropyrimido[5,4 c]quinolin-2(1H)-one] here?
A: 8800 nM

Q: What about the IC50 (HCC70; [2]) of the same compound?
A: 2430 nM

Q: And the remaining activity at 1 µM (PKC zeta)?
A: 96%

Q: What about the remaining activity at 1 µM (ABL) of the same compound?
A: 70%

Q: What about the remaining activity at 1 µM (MARK4) of the same compound?
A: 95%

Q: What about the IC50 (141 kinases) of the same compound?
A: 42 to 109 nM

Q: And the remaining activity at 1 µM (ZAP70)?
A: 98%

Q: And the remaining activity at 1 µM (CLK2)?
A: 11%

Q: What about the IC50 (PIK3CA) of the same compound?
A: 962 nM

Q: And the remaining activity at 1 µM (PIM1)?
A: 1%

Q: What about the IC50 (PIM1; radioactive filter-binding assay provided by the ICKP, read-out: Enzymatic IC50 PIM1) of the same compound?
A: 60.6 nM

Q: What about the remaining activity at 1 µM (CHK2) of the same compound?
A: 34%

Q: And the remaining activity at 1 µM (PKC gamma)?
A: 71%

Q: What about the remaining activity at 1 µM (MAPKAP-K3) of the same compound?
A: 89%

Q: And the remaining activity at 1 µM (OSR1)?
A: 93%

Q: What about the remaining activity at 1 µM (MSK1) of the same compound?
A: 65%

Q: And the remaining activity at 1 µM (RSK1)?
A: 48%

Q: What about the remaining activity at 1 µM (MAP4K5) of the same compound?
A: 32%

Q: What about the remaining activity at 1 µM (PAK6) of the same compound?
A: 89%

Q: And the remaining activity at 1 µM (SRPK1)?
A: 94%

Q: And the IC50 (mTOR)?
A: 632 nM

Q: What about the remaining activity at 1 µM (EPH-A2) of the same compound?
A: 66%

Q: What about the IC50 (ZR-75-1) of the same compound?
A: > 10000 nM

Q: What about the remaining activity at 1 µM (ULK1) of the same compound?
A: 93%

Q: And the remaining activity at 1 µM (HER4)?
A: 84%

Q: What about the remaining activity at 1 µM (BRSK1) of the same compound?
A: 85%

Q: And the remaining activity at 1 µM (MNK1)?
A: 109%

Q: And the remaining activity at 1 µM (IR)?
A: 100%

Q: And the remaining activity at 1 µM (PKC alpha)?
A: 79%

Q: And the remaining activity at 1 µM (MST4)?
A: 96%

Q: And the remaining activity at 1 µM (IGF-1R)?
A: 92%

Q: And the remaining activity at 1 µM (MST2)?
A: 45%

Q: And the IC50 (MCF7; [3])?
A: 8750 nM

Q: And the IC50 (MCF7; [4])?
A: 4130 nM

Q: And the remaining activity at 1 µM (YES1)?
A: 32%

Q: What about the remaining activity at 1 µM (TESK1) of the same compound?
A: 95%

Q: And the remaining activity at 1 µM (Aurora A)?
A: 98%

Q: For `CC(=O)c1cnc2ccc(-c3cc(Cl)c(O)c(Cl)c3)nc2c1N[C@H]1CC[C@H](CN(C)C)CC1` [OTSSP167], which IC50 (HCC70; [1]) is on record?
A: 34 nM

Q: And the IC50 (HCC70; [2])?
A: 21 nM

Q: What about the remaining activity at 1 µM (PKC zeta) of the same compound?
A: 19%

Q: And the remaining activity at 1 µM (ABL)?
A: 1%

Q: What about the remaining activity at 1 µM (MARK4) of the same compound?
A: 14%

Q: What about the remaining activity at 1 µM (ZAP70) of the same compound?
A: 78%

Q: And the remaining activity at 1 µM (CLK2)?
A: 0%

Q: And the IC50 (PIK3CA)?
A: 66.5 nM

Q: And the remaining activity at 1 µM (PIM1)?
A: 10%

Q: What about the remaining activity at 1 µM (CHK2) of the same compound?
A: 1%

Q: What about the remaining activity at 1 µM (PKC gamma) of the same compound?
A: 1%

Q: And the remaining activity at 1 µM (MAPKAP-K3)?
A: 94%

Q: And the remaining activity at 1 µM (OSR1)?
A: 45%

Q: What about the remaining activity at 1 µM (MSK1) of the same compound?
A: 5%

Q: What about the remaining activity at 1 µM (RSK1) of the same compound?
A: 3%

Q: What about the remaining activity at 1 µM (MAP4K5) of the same compound?
A: 3%

Q: What about the remaining activity at 1 µM (PAK6) of the same compound?
A: 29%

Q: And the remaining activity at 1 µM (SRPK1)?
A: 10%

Q: What about the IC50 (mTOR) of the same compound?
A: 35.7 nM

Q: And the remaining activity at 1 µM (EPH-A2)?
A: 7%

Q: And the IC50 (ZR-75-1)?
A: 55 nM

Q: And the remaining activity at 1 µM (ULK1)?
A: 32%

Q: What about the “activity against MELK” value (MELK) of the same compound?
A: subnanomolar

Q: What about the remaining activity at 1 µM (HER4) of the same compound?
A: 4%

Q: And the remaining activity at 1 µM (BRSK1)?
A: 2%

Q: What about the remaining activity at 1 µM (MNK1) of the same compound?
A: 28%

Q: And the remaining activity at 1 µM (IR)?
A: 2%

Q: And the remaining activity at 1 µM (PKC alpha)?
A: 7%

Q: What about the remaining activity at 1 µM (MST4) of the same compound?
A: 5%

Q: What about the remaining activity at 1 µM (IGF-1R) of the same compound?
A: 4%

Q: And the remaining activity at 1 µM (MST2)?
A: 7%

Q: And the IC50 (MCF7; [3])?
A: 35 nM

Q: What about the IC50 (MCF7; [4]) of the same compound?
A: 27 nM

Q: What about the remaining activity at 1 µM (YES1) of the same compound?
A: 18%

Q: What about the remaining activity at 1 µM (TESK1) of the same compound?
A: 51%

Q: What about the remaining activity at 1 µM (Aurora A) of the same compound?
A: 10%
